{
  "source": "PubChem BioAssay (NCI)",
  "experiment_in_all_cases": "inhibition of tumour cell growth, NCI panel, 48 h",
  "key": {"NCI-H522 lung": {"tested_on": "NCI-H522 lung"}, "PC-3 prostate": {"tested_on": "PC-3 prostate"}, "SR leukemia": {"tested_on": "SR leukemia"}, "UO-31 renal": {"tested_on": "UO-31 renal"}, "SK-OV-3 ovarian": {"tested_on": "SK-OV-3 ovarian"}, "HCT-116 colon": {"tested_on": "HCT-116 colon"}, "SF-268 CNS": {"tested_on": "SF-268 CNS"}, "SF-295 CNS": {"tested_on": "SF-295 CNS"}, "NCI/ADR-RES ovarian": {"tested_on": "NCI/ADR-RES ovarian"}, "NCI-H23 lung": {"tested_on": "NCI-H23 lung"}, "EKVX NSCLC": {"tested_on": "EKVX NSCLC"}, "MDA-MB-435": {"tested_on": "MDA-MB-435"}, "786-0 renal": {"tested_on": "786-0 renal"}, "MCF7 breast": {"tested_on": "MCF7 breast"}, "HOP-62 NSCLC": {"tested_on": "HOP-62 NSCLC"}, "DU-145 prostate": {"tested_on": "DU-145 prostate"}, "SK-MEL-5 melanoma": {"tested_on": "SK-MEL-5 melanoma"}, "MDA-MB-231 breast": {"tested_on": "MDA-MB-231 breast"}, "K-562 leukemia": {"tested_on": "K-562 leukemia"}, "UACC-62 melanoma": {"tested_on": "UACC-62 melanoma"}, "LOX IMVI melanoma": {"tested_on": "LOX IMVI melanoma"}, "M14 melanoma": {"tested_on": "M14 melanoma"}, "HOP-92 NSCLC": {"tested_on": "HOP-92 NSCLC"}, "NCI-H460 lung": {"tested_on": "NCI-H460 lung"}, "HCC-2998 colon": {"tested_on": "HCC-2998 colon"}, "SNB-19 CNS": {"tested_on": "SNB-19 CNS"}, "T-47D breast": {"tested_on": "T-47D breast"}, "SN12C renal": {"tested_on": "SN12C renal"}},
  "note": "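Each compound was tested at five concentrations against cells in 96-well plates for 48 hours. GI50 marks 50% less growth. At the TGI there is no net growth.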",
  "data": [
    {"smiles": "CO[C@H]1/C=C/C=C/C=C/C[C@H](OC(=O)[C@@H](C)NC(=O)C2CCCCC2)[C@H](C)[C@@H](O)/C(C)=C\\CCC2=CC(=O)C=C(NC(=O)C1)C2=O", "values": [
      {"measurement": "GI50", "setting": "NCI-H522 lung", "result": 104, "unit": "nM"},
      {"measurement": "TGI", "setting": "NCI-H522 lung", "result": 823, "unit": "nM"},
      {"measurement": "GI50", "setting": "PC-3 prostate", "result": 128, "unit": "nM"},
      {"measurement": "TGI", "setting": "PC-3 prostate", "result": 896, "unit": "nM"},
      {"measurement": "GI50", "setting": "SR leukemia", "result": 56.1, "unit": "nM"},
      {"measurement": "TGI", "setting": "SR leukemia", "result": "> 50000", "unit": "nM"},
      {"measurement": "GI50", "setting": "UO-31 renal", "result": 352, "unit": "nM"},
      {"measurement": "TGI", "setting": "UO-31 renal", "result": 2790, "unit": "nM"},
      {"measurement": "GI50", "setting": "SK-OV-3 ovarian", "result": 187, "unit": "nM"},
      {"measurement": "TGI", "setting": "SK-OV-3 ovarian", "result": 1830, "unit": "nM"},
      {"measurement": "GI50", "setting": "HCT-116 colon", "result": 47.2, "unit": "nM"},
      {"measurement": "TGI", "setting": "HCT-116 colon", "result": 738, "unit": "nM"},
      {"measurement": "GI50", "setting": "SF-268 CNS", "result": 123, "unit": "nM"},
      {"measurement": "TGI", "setting": "SF-268 CNS", "result": 1010, "unit": "nM"},
      {"measurement": "GI50", "setting": "SF-295 CNS", "result": 124, "unit": "nM"},
      {"measurement": "TGI", "setting": "SF-295 CNS", "result": 966, "unit": "nM"},
      {"measurement": "GI50", "setting": "NCI/ADR-RES ovarian", "result": 4000, "unit": "nM"},
      {"measurement": "TGI", "setting": "NCI/ADR-RES ovarian", "result": "> 50000", "unit": "nM"},
      {"measurement": "GI50", "setting": "NCI-H23 lung", "result": 115, "unit": "nM"},
      {"measurement": "TGI", "setting": "NCI-H23 lung", "result": 812, "unit": "nM"},
      {"measurement": "GI50", "setting": "EKVX NSCLC", "result": 174, "unit": "nM"},
      {"measurement": "TGI", "setting": "EKVX NSCLC", "result": 2250, "unit": "nM"},
      {"measurement": "GI50", "setting": "MDA-MB-435", "result": 154, "unit": "nM"},
      {"measurement": "TGI", "setting": "MDA-MB-435", "result": 989, "unit": "nM"},
      {"measurement": "GI50", "setting": "786-0 renal", "result": 177, "unit": "nM"},
      {"measurement": "TGI", "setting": "786-0 renal", "result": 1320, "unit": "nM"},
      {"measurement": "GI50", "setting": "MCF7 breast", "result": 130, "unit": "nM"},
      {"measurement": "TGI", "setting": "MCF7 breast", "result": 3540, "unit": "nM"},
      {"measurement": "GI50", "setting": "HOP-62 NSCLC", "result": 125, "unit": "nM"},
      {"measurement": "TGI", "setting": "HOP-62 NSCLC", "result": 680, "unit": "nM"},
      {"measurement": "GI50", "setting": "DU-145 prostate", "result": 127, "unit": "nM"},
      {"measurement": "TGI", "setting": "DU-145 prostate", "result": 1400, "unit": "nM"},
      {"measurement": "GI50", "setting": "SK-MEL-5 melanoma", "result": 84.5, "unit": "nM"},
      {"measurement": "TGI", "setting": "SK-MEL-5 melanoma", "result": 521, "unit": "nM"},
      {"measurement": "GI50", "setting": "MDA-MB-231 breast", "result": 137, "unit": "nM"},
      {"measurement": "TGI", "setting": "MDA-MB-231 breast", "result": 934, "unit": "nM"},
      {"measurement": "GI50", "setting": "K-562 leukemia", "result": 177, "unit": "nM"},
      {"measurement": "TGI", "setting": "K-562 leukemia", "result": "> 50000", "unit": "nM"},
      {"measurement": "GI50", "setting": "UACC-62 melanoma", "result": 80.1, "unit": "nM"},
      {"measurement": "TGI", "setting": "UACC-62 melanoma", "result": 682, "unit": "nM"},
      {"measurement": "GI50", "setting": "LOX IMVI melanoma", "result": 104, "unit": "nM"},
      {"measurement": "TGI", "setting": "LOX IMVI melanoma", "result": 547, "unit": "nM"},
      {"measurement": "GI50", "setting": "M14 melanoma", "result": 119, "unit": "nM"},
      {"measurement": "TGI", "setting": "M14 melanoma", "result": 746, "unit": "nM"},
      {"measurement": "GI50", "setting": "HOP-92 NSCLC", "result": 162, "unit": "nM"},
      {"measurement": "TGI", "setting": "HOP-92 NSCLC", "result": 1980, "unit": "nM"},
      {"measurement": "GI50", "setting": "NCI-H460 lung", "result": 111, "unit": "nM"},
      {"measurement": "TGI", "setting": "NCI-H460 lung", "result": 1140, "unit": "nM"},
      {"measurement": "GI50", "setting": "HCC-2998 colon", "result": 109, "unit": "nM"},
      {"measurement": "TGI", "setting": "HCC-2998 colon", "result": 762, "unit": "nM"},
      {"measurement": "GI50", "setting": "SNB-19 CNS", "result": 106, "unit": "nM"},
      {"measurement": "TGI", "setting": "SNB-19 CNS", "result": 563, "unit": "nM"},
      {"measurement": "GI50", "setting": "T-47D breast", "result": 105, "unit": "nM"},
      {"measurement": "TGI", "setting": "T-47D breast", "result": 1060, "unit": "nM"},
      {"measurement": "GI50", "setting": "SN12C renal", "result": 106, "unit": "nM"},
      {"measurement": "TGI", "setting": "SN12C renal", "result": 556, "unit": "nM"}
    ]}
  ]
}
